Values quoted from earlier work in patent US9675546B2, “Method of treating atrophic vaginitis” (priority 2006, dated 2017).
Where two headings read alike, the source gives them in different places.

Legend:
[1] = not given; remark: listed apart in the source
[2] = not given; remark: listed apart in the source
breast cancer risk = conditions: progestogen combined with estrogens in HRT users
[3] = single oral dose of 20 mg tamoxifen

Time to steady state concentrations after initiation of therapy (oral) | Average steady state plasma concentration (oral, once daily for 3 months) | Average peak plasma concentration [3] | Time of peak plasma concentration after dosing [3] | SMILES | Cardiovascular Events ([1]; in vivo) | Glucose/Insulin ([1]; in vivo) | Lipid Profile ([1]; in vivo) | Liver function ([1]; in vivo) | Sleep and Mood ([1]; in vivo) | Quality of life/menopausal symptoms: women with significant improvement in symptoms ([1]; MP-containing HRT compared with MPA-containing regimen) | Serum concentration ([2]; 25 mg progesterone vaginal suppository) | Serum concentration ([2]; 50 mg progesterone vaginal suppository) | Risk of breast cancer (RR) (breast cancer risk)
about 4 weeks | 122 ng/mL | 40 ng/mL | approximately 5 hours | CC/C(=C(\c1ccccc1)c1ccc(OCCN(C)C)cc1)c1ccccc1 [tamoxifen, 1-(p-dimethylamino-ethoxphenyl)-2-ethyl-1,2-diphenylethylene] |  |  |  |  |  |  |  |  | 
 |  |  |  | CC(=O)O[C@]1(C(C)=O)CC[C@H]2[C@@H]3C[C@H](C)C4=CC(=O)CC[C@]4(C)[C@H]3CC[C@@]21C [MPA, Medroxyprogesterone Acetate] | MPA: may cause fluid retention and edema, increases incidence | MPA: has been found to cause deterioration of glucose tolerance | MPA: adversely effects lipid profile and negates the beneficial | MPA: contraindicted in patients with liver dysfunction. | MPA: can cause insomnia, mental depression, and anxiety. |  |  |  | 
 |  |  |  | CC(=O)[C@H]1CC[C@H]2[C@@H]3CCC4=CC(=O)CC[C@]4(C)[C@H]3CC[C@]12C [progesterone, pregn-4-ene-3, 20-dione] | MP: has antihypertensive action and can be safely used to treat | MP: augments the pancreatic response to glucose and increases |  | MP: does not effect liver enzymes or cause livie related side | MP: improves the quality of sleep and has sedative properties. | symptoms in 80%. | 7.27 ng/mL | 8.84 ng/mL | 0.9
